Reference: publication PMC10227015, “From a drug repositioning to a structure-based drug design approach to tackle acute lymphoblastic leukemia” (Nature Communications, 2023)
Where two headings read alike, the source gives them in different places.

What was measured:
[1] = test system: dCK-C3S-S74E; assay: Thermal shift assay (TSA); details: for THERMAL SHIFT ASSAY +Tm (°): mean ± SD; for ΔTm (º) (TSA): Figure 2a, mean
Description: BL21 pRIL Escherichia coli cells were transformed with dCK-plasmids (dCK-C4S-S74E (for crystallization assays) and dCK-C3S-S74E (for TSA, enzymatic and ITC assays)). […] Protein dCK-C3S-S74E used for other assays contained only three mutated cysteines. The S74E mutation mimics the phosphorylated state of this serine, which favors the open conformation of the enzyme, making it competent for nucleoside binding[45] to evaluate the binding affinity with compounds.
For binding assays (TSA, ITC and crystallography) cells were re-suspended in 50 mM TRIS, pH 8, 500 mM NaCl, 30 mM imidazole and 10% glycerol buffer and one EDTA free anti-protease tablet was added (Roche). After sonication and centrifugation (30,000 × g), the supernatant was loaded on a 5 ml HisTrap FF column (GE healthcare) pre-equilibrated with resuspension buffer. Protein was then eluted by resuspension buffer containing 500 mM imidazole. Protein eluted fractions were mixed and concentrated. Protein was further purified by size exclusion chromatography (superdex 200 16/600, GE healthcare) in 20 mM HEPES, pH 7.5, and 200 mM NaCl before concentration to 30 mg/ml and storage at −80 °C.
Thermal shift assay (TSA) experiments were performed in 384-well PCR white plates in the assay buffer containing 20 mM HEPES, pH 7.5 and 200 mM NaCl. […] Plates were centrifuged at 200 × g for 2 min at 4 °C. […] Raw fluorescence data were treated, and the melting temperatures (Tm) were calculated using CFX Manager 3.1 software (Bio-Rad). ΔTm represents the difference in Tm between the protein in the presence of compound and the protein alone (both at 2% DMSO). Each experiment was performed at least twice (with technical triplicates) and data are presented as the mean ± SD.

[2] = target: dCK-C3S-S74E; assay: Enzymatic assay (PK/LDH coupled), dC phosphorylation by dCK in the presence of ATP; assay type: biochemical, human; details: presence of ATP, [dCK] = 100 nM; read-out: ENZYMATIC ASSAY IC50
Description: (§1) For enzymatic assays, cells were re-suspended in 20 mM TRIS, pH 8 500 mM NaCl, 0.1% BRIJ-35 and 5% glycerol buffer and one EDTA free anti-protease tablet was added (Roche). After sonication and centrifugation (30,000 × g), the supernatant was loaded on a 5 ml HisTrap FF column (GE healthcare) pre-equilibrated with 20 mM TRIS, pH 8, 500 mM NaCl, 0.01% BRIJ-35 and 5% glycerol buffer. The protein was then eluted by the same buffer containing 250 mM imidazole after a wash containing 25 mM imidazole. The eluted fraction was applied on a HiPrep 26/10 desalting column (GE healthcare) pre-equilibrated with 20 mM TRIS, pH 8, 500 mM NaCl, 5% glycerol and 0.01% BRIJ-35 buffer. Finally, protein in a 20% glycerol buffer was flash frozen in liquid nitrogen and stored at −80 °C.
(§2) Kinetic analyses were performed using a spectrophotometric continuous enzymatic-coupled assay using pyruvate kinase (PK) and lactate dehydrogenase (LDH). Analysis of the effect of compounds on dCK-C3S-S74E activity was performed using dC as substrate and UTP/ATP as phosphate donors. UTP is the physiological dCK-phosphate donor[46] and it was used to determine activation versus inhibition behavior. ATP was used to calculate IC50 values, as it allows the analysis of a dose response curve. The PK/LDH coupled assay is based on the conversion of phosphoenolpyruvate (PEP) and UDP/ADP to pyruvate and UTP/ATP by PK and the subsequent conversion of pyruvate to lactate by LDH. The latter step requires NADH, which is oxidized to NAD^+. NADH is fluorescent (excitation at 337 nm and emission at 460 nm), but not NAD^+. Thus, the measurement of fluorescent decrease at 460 nm is a measure of kinase activity. dCK experiments were performed in a buffer containing 50 mM HEPES, pH 7.5, 5 mM MgCl2, 1 mM DTT, and 100 mM KCl. Buffer was supplemented with PK (0.01 U/µl), LDH (0.02 U/µl), PEP (1 mM), NADH (300 µM) and compounds at varying concentrations. For UTP assays, protein concentration was 2 μM, substrate 200 µM (dC), and UTP 1 mM. For ATP assays, protein concentration was 100 nM (and 50 nM when indicated), substrate 100 µM (dC), and ATP 1 mM. All measurements were performed on a microplate reader Pherastar FS (BMG Labtech). All assays were performed in triplicate and each experiment was performed at least twice. The data are presented as mean ± SD. The results were plotted as kinetics and the velocity was determined for each condition as the slope of the linear range of the curve. For each compound concentration, the velocity of the reaction (according to V = d[P]/dt) was normalized with respect to the drug free control and velocity ratios were compared. IC50 values corresponding to enzymatic inhibition in ATP were calculated by nonlinear regression curves using GraphPad Prism software 9.4.0.

[3] = test system: dCK-C3S-S74E; assay: Enzymatic assay (PK/LDH coupled), dC phosphorylation by dCK in the presence of UTP; assay type: biochemical, human; details: presence of UTP
Description: as §1
as §2, with “Analysis of the effect of compounds on dCK-C3S-S74E activity was performed using dC as substrate and UTP/ATP as phosphate donors.” left out

[4] = test system: CCRF-CEM cell line; assay: dCK cellular assay: CCRF-CEM proliferation in the presence of dT and dC; assay type: cell-based, human
Description: The dCK cellular assay was set up to assess the ability to inhibit dCK activity in a cellular model. The model was developed with a T-cell acute lymphoblastic leukemia cell line (CCRF-CEM), because of its high dependence on the SP, thus on dCK activity. Cellular assays were performed to assess the inhibition of cell proliferation under two conditions: (i) in the presence of the compound alone to determine the nonspecific effect on cells, independent of dCK (nonspecific toxicity) and (ii) in the presence of an inhibitor of the DNP to determine the ability of compounds to inhibit dCK and decrease tumor proliferation (activity on dCK). The inhibitor of the DNP chosen for the experiments was thymidine (dT), a physiological inhibitor of ribonucleotide reductase which arrests cell proliferation in phase S. The dTTP produced via thymidine kinase from dT acts as a RNR inhibitor by an allosteric regulation of the R1 subunit. The addition of the nucleoside deoxycytidine (dC) in the medium allows the rescue of cell proliferation by passing only through the salvage pathway, mediated by dCK. dC needs to be added exogenously to mimic physiological concentrations because it is not present in the cell culture medium, on the contrary to mouse model, in which it is naturally present in the serum. Therefore, cell proliferation under these conditions (+dT +dC) is dCK dependent and it is possible to determine the IC50 of dCK inhibitors on the inhibition of cell proliferation. Results are expressed as % cell proliferation relative to the control with DMSO.
The amount of reduced dye formed by metabolically active cells was quantified by its fluorescence measured at 560 nm (excitation) and 590 nm (emission) in a microplate reader (CLARIOstar, BMG Labtech). A blank well without cells was used as a background control. Each experiment was performed at least three times (with technical triplicates) and data are presented as the mean ± SD.

[5] = Homo sapiens, read-out: dCK CELLULAR ASSAY IC50 (nM), CCRF-CEM, 200 µM dT and 1 µM dC, read-out: dCK […] ASSAY IC50

dCK-C3S-S74E, sequence (P27707 whole entry S74E, form open): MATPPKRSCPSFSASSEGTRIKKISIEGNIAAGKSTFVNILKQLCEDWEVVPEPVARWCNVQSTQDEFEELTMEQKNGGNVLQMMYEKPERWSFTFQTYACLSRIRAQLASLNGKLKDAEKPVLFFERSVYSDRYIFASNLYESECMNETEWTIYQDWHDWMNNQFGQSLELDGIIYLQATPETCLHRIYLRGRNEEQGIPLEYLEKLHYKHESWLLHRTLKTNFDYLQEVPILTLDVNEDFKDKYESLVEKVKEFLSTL

CCCN(c1nc(-c2nccc(N)n2)cs1)c1cc(NC(=O)c2ccc(CN3CCN(C)CC3)cc2)ccc1C [OR0105]
THERMAL SHIFT ASSAY +Tm (°) [1]: 14.5 ± 0.2 °
IC50 [2]: 2140 ± 49 nM
ENZYMATIC ASSAY (Activation/Inhibition) [3]: I
IC50 [4, 5]: 1620 ± 254 nM

Cc1ccc(NC(=O)c2ccc(CCN3CCN(C)CC3)cc2)cc1Nc1nc(-c2nccc(N)n2)cs1 [OR0146]
THERMAL SHIFT ASSAY +Tm (°) [1]: 14.8 ± 0.4 °
IC50 [2]: 3460 ± 349 nM
ENZYMATIC ASSAY (Activation/Inhibition) [3]: A/I
IC50 [4, 5]: 14600 ± 1190 nM

Cc1ccc(C#Cc2ccc(CN3CCN(C)CC3)cc2)cc1Nc1nc(-c2nccc(N)n2)cs1 [OR0153]
THERMAL SHIFT ASSAY +Tm (°) [1]: 16.9 ± 0.4 °
IC50 [2]: 2040 ± 684 nM
ENZYMATIC ASSAY (Activation/Inhibition) [3]: A/I
IC50 [4, 5]: 2180 ± 388 nM

Cc1ccc(NC(=O)c2ccc(CN(C)C)cc2)cc1Nc1nc(-c2nccc(N)n2)cs1 [OR0155]
THERMAL SHIFT ASSAY +Tm (°) [1]: 10.9 ± 0.4 °
IC50 [2]: 7780 ± 2330 nM
ENZYMATIC ASSAY (Activation/Inhibition) [3]: A/I
IC50 [4, 5]: 13800 ± 394 nM

Cc1ccc(NC(=O)c2ccc(CN3CC4(CN(C)C4)C3)cc2)cc1Nc1nc(-c2nccc(N)n2)cs1 [OR0156]
THERMAL SHIFT ASSAY +Tm (°) [1]: 12.6 ± 0.1 °
IC50 [2]: 6380 ± 2080 nM
ENZYMATIC ASSAY (Activation/Inhibition) [3]: A/I
IC50 [4, 5]: > 40000 nM

Cc1ccc(OCc2ccc(CN3CCN(C)CC3)cc2)cc1Nc1nc(-c2nccc(N)n2)cs1 [OR0232]
THERMAL SHIFT ASSAY +Tm (°) [1]: 15.2 ± 0.0 °
IC50 [2]: 1940 ± 529 nM
ENZYMATIC ASSAY (Activation/Inhibition) [3]: A/I
IC50 [4, 5]: 3460 ± 638 nM

Cc1ccc(C#Cc2ccc(CN(C)C)cc2)cc1Nc1nc(-c2nccc(N)n2)cs1 [OR0237]
THERMAL SHIFT ASSAY +Tm (°) [1]: 15.3 ± 0.5 °
IC50 [2]: 2140 ± 387 nM
ENZYMATIC ASSAY (Activation/Inhibition) [3]: A/I
IC50 [4, 5]: 3340 ± 1450 nM

Cc1ccc(NC(=O)c2ccc(CN3CCN(C)CC3)cc2)cc1Nc1nc(-c2ncc(F)c(N)n2)cs1 [OR0239]
THERMAL SHIFT ASSAY +Tm (°) [1]: 14.3 ± 0.4 °
IC50 [2]: 3350 ± 1070 nM
ENZYMATIC ASSAY (Activation/Inhibition) [3]: A/I
IC50 [4, 5]: 14800 ± 1580 nM

Cc1ccc(NC(=O)c2ccc(CN3CCN(C)CC3)s2)cc1Nc1nc(-c2nccc(N)n2)cs1 [OR0241]
THERMAL SHIFT ASSAY +Tm (°) [1]: 13.5 ± 0.0 °
IC50 [2]: 3770 ± 2190 nM
ENZYMATIC ASSAY (Activation/Inhibition) [3]: A/I
IC50 [4, 5]: 14200 ± 1160 nM

CN1CCN(Cc2ccc(C(=O)Nc3ccc4c(c3)N(c3nc(-c5nccc(N)n5)cs3)CCCC4)cc2)CC1 [OR0289]
THERMAL SHIFT ASSAY +Tm (°) [1]: 15.9 ± 0.5 °
IC50 [2]: 3400 ± 564 nM
ENZYMATIC ASSAY (Activation/Inhibition) [3]: A/I
IC50 [4, 5]: 3920 ± 461 nM

Cc1ccc(-c2ccc(O)cc2)cc1Nc1nc(-c2nccc(N)n2)cs1 [OR0320]
THERMAL SHIFT ASSAY +Tm (°) [1]: 15.0 ± 0.2 °
IC50 [2]: 1760 ± 385 nM
ENZYMATIC ASSAY (Activation/Inhibition) [3]: A/I
IC50 [4, 5]: 6770 ± 2810 nM

COc1cc(-c2ccc(C)c(Nc3nc(-c4nccc(N)n4)cs3)c2)ccc1O [OR0321]
THERMAL SHIFT ASSAY +Tm (°) [1]: 13.3 ± 0.2 °
IC50 [2]: 2270 ± 293 nM
ENZYMATIC ASSAY (Activation/Inhibition) [3]: A/I
IC50 [4, 5]: 8290 ± 2710 nM

Cc1ccc(-c2ccc(CCCN3CCN(C)CC3)cc2)cc1Nc1nc(-c2nccc(N)n2)cs1 [OR0331]
THERMAL SHIFT ASSAY +Tm (°) [1]: 19.4 ± 0.4 °
IC50 [2]: 401 ± 28 nM
ENZYMATIC ASSAY (Activation/Inhibition) [3]: A/I
IC50 [4, 5]: 918 ± 107 nM

CCCN(c1nc(-c2nccc(N)n2)cs1)c1cc(-c2ccc(OCCN3CCN(C)CC3)cc2)ccc1C [OR0596]
THERMAL SHIFT ASSAY +Tm (°) [1]: 18.9 ± 0.1 °
IC50 [2]: 286 ± 145 nM
ENZYMATIC ASSAY (Activation/Inhibition) [3]: I
IC50 [4, 5]: 307 ± 50 nM

CCCN(c1nc(-c2nccc(N)n2)cs1)c1cc(-c2ccc(CCCN3CCN(C)CC3)cc2)ccc1C [OR0598]
THERMAL SHIFT ASSAY +Tm (°) [1]: 19.1 ± 0.2 °
IC50 [2]: 301 ± 78 nM
ENZYMATIC ASSAY (Activation/Inhibition) [3]: I
IC50 [4, 5]: 776 ± 206 nM

CCCN(c1nc(-c2nccc(N)n2)cs1)c1cc(-c2ccc(CCN3CCN(C)CC3)nc2)ccc1C [OR0599]
THERMAL SHIFT ASSAY +Tm (°) [1]: 17.1 ± 0.2 °
IC50 [2]: 211 ± 52 nM
ENZYMATIC ASSAY (Activation/Inhibition) [3]: I
IC50 [4, 5]: 136 ± 53 nM

CCCN(c1nc(-c2nc(N)cc(N)n2)cs1)c1cc(-c2cnc(N)nc2)ccc1C [OR0613]
ΔTm (º) (TSA) [1]: 14.5 º
THERMAL SHIFT ASSAY +Tm (°) [1]: 14.5 ± 0.7 °
ENZYMATIC ASSAY (Activation/Inhibition) [3]: I
IC50 ([4]; Homo sapiens, Figure 2a, CCRF-CEM cell line, mean, read-out: IC50 (nM) (Cell Prolif)): 703 nM

CCCN(c1nc(-c2nc(N)cc(N)n2)cs1)c1cc(-c2cnc(S(=O)(=O)N3CCN(C)CC3)cc2C)ccc1C [OR0652]
ΔTm (º) (TSA) [1]: 19.17 º
IC50 ([4]; Figure 2a, CCRF-CEM cell line, mean, read-out: IC50 (nM) (Cell Prolif)): 7.3 nM
